Laboratory results taken from DBAASP.
Converted amounts (≈) assume the structure as drawn.

Assays:
Test in all cases: ≥ marks a high value that may be exact or a test limit, other limits are often not marked, values filed in µg/mL are converted to µM
Escherichia coli = tested on: Escherichia coli
Staphylococcus aureus = tested on: Staphylococcus aureus
[1] = tested on: Escherichia coli ATCC 25922
[2] = tested on: Staphylococcus aureus ATCC 29213
[3] = tested on: Staphylococcus epidermidis ATCC 12228
[4] = tested on: Pseudomonas aeruginosa ATCC 27853

Row | Structure (SMILES) | MIC [1] | MIC [2] | other results
1 | CC[C@H](C)[C@H](NC(=O)[C@H](Cc1c[nH]c2ccccc12)NC(=O)[C@H](CCCCN)NC(=O)[C@@H](NC(=O)[C@H](CC(C)C)NC(=O)[C@H](CCCCN)NC(=O)CNC(=O)[C@@H](NC(=O)[C@@H](NC(=O)[C@H](CO)NC(=O)[C@@H](NC(=O)[C@@H](NC(=O)[C@H](CCCCN)NC(=O)[C@H](CCC(N)=O)NC(=O)[C@H](C)N)[C@@H](C)CC)[C@@H](C)CC)[C@@H](C)O)[C@@H](C)CC)C(C)C)C(=O)N[C@H](C(=O)N[C@@H](CCCCN)C(=O)N[C@H](C(=O)N[C@H](C(=O)N[C@@H](CC(N)=O)C(=O)N[C@@H](CCCCN)C(=O)N[C@@H](Cc1ccccc1)C(=O)N[C@H](C(=O)N[C@@H](CCCCN)C(=O)N[C@@H](CCCCN)C(=O)O)[C@@H](C)O)C(C)C)[C@@H](C)O)[C@@H](C)CC [AQKIISTIGKLVKWIIKTVNKFTKK] |  |  | MIC (Escherichia coli): 2.5 µM (≈ 7.22 µg/mL); MIC (Staphylococcus aureus): 10.3 µM (≈ 29.7 µg/mL)
2 | CC[C@H](C)[C@H](NC(=O)[C@@H](N)Cc1ccccc1)C(=O)N[C@@H](CC(C)C)C(=O)N[C@@H](CCCCN)C(=O)N[C@@H](CCCN=C(N)N)C(=O)N[C@@H](CO)C(=O)N[C@@H](Cc1ccc(O)cc1)C(=O)N1CCC[C@H]1C(=O)N[C@@H](CCC(N)=O)C(=O)N[C@@H](Cc1ccc(O)cc1)C(=O)N[C@@H](Cc1ccc(O)cc1)C(N)=O [FILKRSYPQYY] | 406 µM (≈ 600 µg/mL) | > 474 µM | 
3 | CC(C)C[C@H](NC(=O)[C@H](Cc1c[nH]c2ccccc12)NC(=O)[C@H](CCCCN)NC(=O)[C@H](CCCCN)NC(=O)[C@H](C)NC(=O)[C@H](CO)NC(=O)[C@H](Cc1cnc[nH]1)NC(=O)[C@H](CC(C)C)NC(=O)[C@H](Cc1ccccc1)NC(=O)[C@H](CCCCN)NC(=O)[C@@H](N)CCCCN)C(=O)N[C@@H](CCCCN)C(=O)N[C@@H](C)C(=O)N[C@@H](Cc1ccccc1)C(=O)N[C@H](C(=O)N[C@@H](CCCCN)C(=O)N[C@@H](CC(C)C)C(=O)N[C@@H](Cc1ccccc1)C(=O)N[C@@H](CCCCN)C(=O)N[C@@H](CC(N)=O)C(=O)N[C@@H](Cc1c[nH]c2ccccc12)C(=O)O)C(C)C [KKFLHSAKKWLKAFVKLFKNW] |  | 9.44 µM (≈ 25 µg/mL) | 
4 | CC[C@H](C)[C@H](NC(=O)[C@H](Cc1c[nH]c2ccccc12)NC(=O)[C@H](CCCCN)NC(=O)[C@@H](NC(=O)[C@H](CC(C)C)NC(=O)[C@@H](N)CCCCN)C(C)C)C(=O)N[C@H](C(=O)N[C@@H](CCCCN)C(=O)N[C@H](C(=O)N[C@H](C(=O)N[C@@H](CC(N)=O)C(=O)N[C@@H](CCCCN)C(=O)N[C@@H](Cc1ccccc1)C(=O)N[C@H](C(=O)N[C@@H](CCCCN)C(=O)N[C@@H](CCCCN)C(=O)O)[C@@H](C)O)C(C)C)[C@@H](C)O)[C@@H](C)CC [KLVKWIIKTVNKFTKK] |  |  | MIC (Escherichia coli): 3.5 µM (≈ 6.91 µg/mL); MIC (Staphylococcus aureus): 22 µM (≈ 43.4 µg/mL)
5 | CC(C)[C@H](NC(=O)[C@H](Cc1c[nH]c2ccccc12)NC(=O)[C@H](CCCCN)NC(=O)[C@@H](N)CCCN=C(N)N)C(=O)N[C@@H](C)C(=O)N[C@@H](Cc1c[nH]c2ccccc12)C(=O)N[C@@H](CCCN=C(N)N)C(=O)N[C@@H](CC(N)=O)C(=O)N[C@@H](CCCN=C(N)N)C(=O)O [RKWVAWRNR] | 98.3 µM (≈ 125 µg/mL) | 49.2 µM (≈ 62.5 µg/mL) | 
6 | NC(=O)[C@H](Cc1c[nH]c2ccccc12)NC(=O)[C@H](Cc1c[nH]c2ccccc12)NC(=O)[C@H](Cc1c[nH]c2ccccc12)NC(=O)[C@@H]1CCCN1C(=O)[C@H](CCCN=C(N)N)NC(=O)[C@@H]1CCCN1C(=O)[C@H](CCCN=C(N)N)NC(=O)[C@@H]1CCCN1C(=O)[C@H](CCCN=C(N)N)NC(=O)[C@@H]1CCCN1C(=O)[C@H](CCCN=C(N)N)NC(=O)[C@@H](N)CCCN=C(N)N [RRPRPRPRPWWW] | 40 µM (≈ 69.8 µg/mL) | 40 µM (≈ 69.8 µg/mL) | MIC [4]: 20 µM (≈ 34.9 µg/mL)
7 | CC(C)C[C@H](NC(=O)[C@H](CC(N)=O)NC(=O)[C@H](Cc1c[nH]c2ccccc12)NC(=O)[C@H](CCCN=C(N)N)NC(=O)[C@H](C)NC(=O)[C@H](CCCCN)NC(=O)[C@H](CCCCN)NC(=O)CNC(=O)[C@H](CC(C)C)NC(=O)[C@H](Cc1ccc(O)cc1)NC(=O)[C@H](Cc1ccc(O)cc1)NC(=O)CNC(=O)[C@H](Cc1c[nH]c2ccccc12)NC(=O)[C@@H](N)CO)C(=O)O [SWGYYLGKKARWNL] |  |  | MIC [3]: > 50 µM
8 | CC(C)C[C@H](NC(=O)[C@H](Cc1ccccc1)NC(=O)[C@@H]1CCCN1C(=O)[C@H](Cc1ccccc1)NC(=O)[C@H](Cc1ccccc1)NC(=O)[C@H](Cc1ccccc1)NC(=O)[C@@H]1CCCN1C(=O)[C@H](Cc1ccccc1)NC(=O)[C@H](CCCN=C(N)N)NC(=O)[C@H](CCCN=C(N)N)NC(=O)[C@@H](N)C(C)C)C(=O)N[C@@H](CCCN=C(N)N)C(=O)N[C@@H](CCCN=C(N)N)C(N)=O [VRRFPFFFPFLRR] |  |  | MIC (Escherichia coli): 3.36 µM (≈ 6 µg/mL); MIC (Staphylococcus aureus): 3.36 µM (≈ 6 µg/mL)

Second part, led by results:

Row | MIC [1] | MIC [2] | Structure (SMILES) | other results
9 | 5 µM (≈ 8.79 µg/mL) | > 40 µM | CC[C@H](C)[C@H](NC(=O)[C@H](CCCN=C(N)N)NC(=O)[C@H](CCC(N)=O)NC(=O)[C@H](Cc1cnc[nH]1)NC(=O)[C@@H](NC(=O)[C@H](CCCN=C(N)N)NC(=O)[C@H](CCCCN)NC(=O)[C@@H](N)Cc1ccccc1)[C@@H](C)CC)C(=O)N[C@@H](CCCCN)C(=O)N[C@@H](CC(=O)O)C(=O)N[C@@H](Cc1ccccc1)C(=O)N[C@@H](CC(C)C)C(=O)N[C@@H](CCCN=C(N)N)C(=O)O [FKRIHQRIKDFLR] | 
10 | 10 µM (≈ 17.3 µg/mL) | > 40 µM | CC[C@H](C)[C@H](NC(=O)[C@H](CCCN=C(N)N)NC(=O)[C@H](CCC(N)=O)NC(=O)[C@@H](NC(=O)[C@H](CCC(N)=O)NC(=O)[C@H](CCCN=C(N)N)NC(=O)[C@H](CCCCN)NC(=O)[C@@H](N)Cc1ccccc1)C(C)C)C(=O)N[C@@H](CCCCN)C(=O)N[C@@H](CC(=O)O)C(=O)N[C@@H](Cc1ccccc1)C(=O)N[C@@H](CC(C)C)C(=O)N[C@@H](CCCN=C(N)N)C(=O)O [FKRQVQRIKDFLR] | 
11 | 5 µM (≈ 13.3 µg/mL) |  | CC[C@H](C)[C@H](NC(=O)CN)C(=O)N[C@@H](CCCCN)C(=O)N[C@@H](CCCCN)C(=O)N[C@@H](Cc1c[nH]c2ccccc12)C(=O)N[C@@H](CC(C)C)C(=O)N[C@@H](Cc1cnc[nH]1)C(=O)N[C@@H](CO)C(=O)N[C@@H](C)C(=O)N[C@@H](CCCCN)C(=O)N[C@@H](CCCCN)C(=O)N1CCC[C@H]1C(=O)NCC(=O)N[C@@H](CCCCN)C(=O)N[C@@H](CCCCN)C(=O)N[C@@H](Cc1ccccc1)C(=O)N[C@H](C(=O)N[C@@H](CCCCN)C(=O)N[C@@H](CCCCN)C(=O)N[C@H](C(=O)N[C@@H](CCSC)C(=O)N[C@@H](CC(N)=O)C(=O)N[C@@H](CO)C(N)=O)[C@@H](C)CC)C(C)C [GIKKWLHSAKKPGKKFVKKIMNS] | MIC [3]: 5 µM (≈ 13.3 µg/mL)
12 | 20 µM (≈ 39.6 µg/mL) | 2.5 µM (≈ 4.95 µg/mL) | NCC(=O)N[C@@H](CCCN=C(N)N)C(=O)N[C@@H](CCCN=C(N)N)C(=O)N1CCC[C@H]1C(=O)N[C@@H](CCCN=C(N)N)C(=O)N1CCC[C@H]1C(=O)N[C@@H](CCCN=C(N)N)C(=O)N1CCC[C@H]1C(=O)N[C@@H](CCCN=C(N)N)C(=O)N1CCC[C@H]1C(=O)N[C@@H](Cc1ccccc1)C(=O)N[C@@H](Cc1ccccc1)C(=O)N[C@@H](Cc1ccccc1)C(=O)N[C@@H](Cc1ccccc1)C(=O)N[C@@H](Cc1ccccc1)C(=O)O [GRRPRPRPRPFFFFF] | MIC [4]: 20 µM (≈ 39.6 µg/mL)
13 | 3.6 µM (≈ 7.88 µg/mL) | 14.6 µM (≈ 32 µg/mL) | CC[C@H](C)[C@H](NC(=O)[C@@H](NC(=O)[C@H](CCCCN)NC(=O)[C@@H](NC(=O)[C@H](C)NC(=O)[C@@H](NC(=O)[C@H](Cc1cnc[nH]1)NC(=O)CNC(=O)[C@H](C)NC(=O)[C@H](CC(C)C)NC(=O)[C@H](CC(=O)O)NC(=O)[C@H](CCCCN)NC(=O)[C@H](C)NC(=O)[C@H](C)NC(=O)CNC(=O)[C@H](CCCCN)NC(=O)[C@H](CC(C)C)NC(=O)[C@@H](NC(=O)[C@H](CC(=O)O)NC(=O)[C@H](CC(C)C)NC(=O)[C@@H](NC(=O)CN)C(C)C)[C@@H](C)CC)C(C)C)[C@@H](C)O)C(C)C)C(=O)O [GVLDILKGAAKDLAGHVATKVI] | 
14 | 20 µM (≈ 34.7 µg/mL) | 14.1 µM (≈ 24.5 µg/mL) | CC(=O)N[C@@H](CCCCN)C(=O)N[C@@H](CC(C)C)C(=O)N[C@@H](CC(C)C)C(=O)N[C@@H](CCCCN)C(=O)N[C@@H](CC(C)C)C(=O)N[C@@H](CC(C)C)C(=O)N[C@@H](CCCCN)C(=O)N[C@@H](CCCCN)C(=O)N[C@@H](CC(C)C)C(=O)N[C@@H](CC(C)C)C(=O)N[C@@H](CCCCN)C(=O)N[C@@H](CC(C)C)C(=O)N[C@@H](CC(C)C)C(=O)N[C@@H](CCCCN)C(N)=O [KLLKLLKKLLKLLK] | 
15 | 5 µM (≈ 9.18 µg/mL) | > 40 µM | CC(C)C[C@H](NC(=O)[C@H](CCCCN)NC(=O)[C@H](CC(C)C)NC(=O)[C@H](CC(C)C)NC(=O)[C@H](CCCCN)NC(=O)[C@H](CCCCN)NC(=O)[C@H](CCCCN)NC(=O)[C@H](CC(C)C)NC(=O)[C@H](CCCCN)NC(=O)[C@H](CC(C)C)NC(=O)[C@H](CC(C)C)NC(=O)[C@H](CCCCN)NC(=O)[C@H](CCCCN)NC(=O)[C@@H](N)CC(C)C)C(=O)N[C@@H](C)C(=O)NCC(=O)O [LKKLLKLKKKLLKLAG] | 
16 | 2.5 µM (≈ 4.55 µg/mL) | > 40 µM | CC(C)C[C@H](NC(=O)[C@H](CCCCN)NC(=O)[C@H](CC(C)C)NC(=O)[C@H](CC(C)C)NC(=O)[C@H](CCCCN)NC(=O)[C@H](CCCCN)NC(=O)[C@H](CC(N)=O)NC(=O)[C@H](CC(C)C)NC(=O)[C@H](CCCCN)NC(=O)[C@H](CC(C)C)NC(=O)[C@H](CC(C)C)NC(=O)[C@H](CCCCN)NC(=O)[C@H](CCCCN)NC(=O)[C@@H](N)CC(C)C)C(=O)N[C@@H](C)C(=O)NCC(=O)O [LKKLLKLNKKLLKLAG] | 
17 | 10 µM (≈ 19.2 µg/mL) | 10 µM (≈ 19.2 µg/mL) | NC(=O)[C@H](Cc1ccccc1)NC(=O)[C@H](Cc1ccccc1)NC(=O)[C@H](Cc1ccccc1)NC(=O)[C@H](Cc1ccccc1)NC(=O)[C@H](Cc1ccccc1)NC(=O)[C@@H]1CCCN1C(=O)[C@H](CCCN=C(N)N)NC(=O)[C@@H]1CCCN1C(=O)[C@H](CCCN=C(N)N)NC(=O)[C@@H]1CCCN1C(=O)[C@H](CCCN=C(N)N)NC(=O)[C@@H]1CCCN1C(=O)[C@H](CCCN=C(N)N)NC(=O)[C@@H](N)CCCN=C(N)N [RRPRPRPRPFFFFF] | MIC [4]: 20 µM (≈ 38.4 µg/mL)
